Assay results published in patent publication US20150094328A1, “4-Azaindole Derivatives” (Eisai R&D Management Co., Ltd., priority 2013, published 2015).

Tested on: male Crlj: WI rats
Assay: Morris water maze test in ibotenic acid-induced learning disability model
Assay type: in vivo, rat
Method: Ibotenic acid at 5 μg/0.5 μL was injected into both basal nuclei of 8-week old male Crlj: WI rats, and a Morris water maze test was performed 10-14 days after ibotenic acid injection. It has been reported that rats in which basal forebrain was lesioned by ibotenic acid injection show learning disability in the Morris water maze test. (Pharmacopsychiat, 1999, 32, 242-247). The test is considered a model of spatial learning and memory.
Learning trials were performed twice a day at an interval of 3 hours for 4 days (8 times in total), and probe trials were performed once the day after completion of the learning trials. Each test compound was dissolved in a 0.5% methylcellulose in water and orally administered 1 hour before the first trial on each day of the learning trials and 1 hour before the trial on the day of the probe trials. […]
In learning trials, the animal was put into water and goal latency and swimming distance to reach the platform were measured (measurement time: 90 seconds at the longest) by a video image behavioral analysis device (Etho Vision XT, Noldus Information Technology Inc.). […]
In probe trials, the platform was removed from the pool. The animal was put into water, and the swimming time in the quadrant where the platform had been located in the learning trials and the frequency of entry into the platform area where the platform had been located in the learning trials were measured by Etho Vision XT.
Each value was shown as an average and a standard error (n=10). The statistical significance between a control group and a vehicle group was analyzed by the independent t-test. The statistical significance between the vehicle group and each sample group was analyzed by one-way analysis of variance and then by Dunnett's multiple comparison test. […]

Measured: Goal latency [mean ± SEM]

O=C(N[C@H]1CCCC[C@@H]1O)c1cn(Cc2ccc(F)cc2)c2cccnc12 [Example 5, 1-(4-Fluorobenzyl)-N-((1S,2S)-2-hydroxycyclohexyl)-1H-pyrrolo[3,2-b]pyridine-3-carboxamide]
[90 ± 0.00] sec.: Trial 1, 0.1 mg/kg p.o. | Trial 1, 0.3 mg/kg p.o. | Trial 2, 0.1 mg/kg p.o.
